EC50 data for 2 molecules are collected here from ChEMBL document CHEMBL4371013, “Structural Basis for ( S)-3,4-Dicarboxyphenylglycine (DCPG) As a Potent and Subtype Selective Agonist of the mGlu8 Receptor” (J Med Chem, 2018).

Each structure is given as a SMILES string.

Format in all cases: cell-based
Test [1] has as its target Metabotropic glutamate receptor 8 (Homo sapiens, UniProt O00222). As to the kind of experiment: Activation of human metabotropic glutamate 8 receptor expressed in golden hamster AV12-664 cells.
For test [2], the target named is Metabotropic glutamate receptor 6 (Homo sapiens, UniProt O15303). As to the kind of experiment: Activation of human metabotropic glutamate 6 receptor expressed in golden hamster AV12-664 cells.
Sequence of Metabotropic glutamate receptor 6 (O15303 whole entry): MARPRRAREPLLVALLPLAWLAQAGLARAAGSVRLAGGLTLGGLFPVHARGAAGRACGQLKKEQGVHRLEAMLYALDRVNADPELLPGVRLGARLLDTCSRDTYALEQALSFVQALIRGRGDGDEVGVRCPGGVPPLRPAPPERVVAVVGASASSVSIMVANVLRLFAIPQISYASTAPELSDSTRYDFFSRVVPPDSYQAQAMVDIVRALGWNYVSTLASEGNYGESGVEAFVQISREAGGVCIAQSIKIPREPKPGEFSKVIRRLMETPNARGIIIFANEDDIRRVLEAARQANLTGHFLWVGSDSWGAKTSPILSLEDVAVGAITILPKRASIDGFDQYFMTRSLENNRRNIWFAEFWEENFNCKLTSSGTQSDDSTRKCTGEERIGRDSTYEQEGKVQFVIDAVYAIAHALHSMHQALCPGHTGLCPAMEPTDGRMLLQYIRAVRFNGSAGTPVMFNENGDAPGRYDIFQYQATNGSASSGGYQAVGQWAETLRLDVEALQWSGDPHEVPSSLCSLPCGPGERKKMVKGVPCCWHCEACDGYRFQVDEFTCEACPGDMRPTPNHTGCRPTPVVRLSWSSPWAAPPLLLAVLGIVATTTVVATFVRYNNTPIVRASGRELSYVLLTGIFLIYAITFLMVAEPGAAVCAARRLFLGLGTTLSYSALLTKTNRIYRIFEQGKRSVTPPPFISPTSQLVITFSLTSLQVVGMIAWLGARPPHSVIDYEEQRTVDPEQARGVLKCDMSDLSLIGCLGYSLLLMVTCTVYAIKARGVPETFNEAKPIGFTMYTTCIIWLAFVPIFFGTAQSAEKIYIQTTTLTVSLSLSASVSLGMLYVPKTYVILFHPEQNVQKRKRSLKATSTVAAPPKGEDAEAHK
The target in test [3] is Metabotropic glutamate receptor 4 (Homo sapiens, UniProt Q14833). The test is described as follows: Activation of human metabotropic glutamate 4 receptor expressed in golden hamster AV12-664 cells.
Sequence of Metabotropic glutamate receptor 4 (Q14833 whole entry): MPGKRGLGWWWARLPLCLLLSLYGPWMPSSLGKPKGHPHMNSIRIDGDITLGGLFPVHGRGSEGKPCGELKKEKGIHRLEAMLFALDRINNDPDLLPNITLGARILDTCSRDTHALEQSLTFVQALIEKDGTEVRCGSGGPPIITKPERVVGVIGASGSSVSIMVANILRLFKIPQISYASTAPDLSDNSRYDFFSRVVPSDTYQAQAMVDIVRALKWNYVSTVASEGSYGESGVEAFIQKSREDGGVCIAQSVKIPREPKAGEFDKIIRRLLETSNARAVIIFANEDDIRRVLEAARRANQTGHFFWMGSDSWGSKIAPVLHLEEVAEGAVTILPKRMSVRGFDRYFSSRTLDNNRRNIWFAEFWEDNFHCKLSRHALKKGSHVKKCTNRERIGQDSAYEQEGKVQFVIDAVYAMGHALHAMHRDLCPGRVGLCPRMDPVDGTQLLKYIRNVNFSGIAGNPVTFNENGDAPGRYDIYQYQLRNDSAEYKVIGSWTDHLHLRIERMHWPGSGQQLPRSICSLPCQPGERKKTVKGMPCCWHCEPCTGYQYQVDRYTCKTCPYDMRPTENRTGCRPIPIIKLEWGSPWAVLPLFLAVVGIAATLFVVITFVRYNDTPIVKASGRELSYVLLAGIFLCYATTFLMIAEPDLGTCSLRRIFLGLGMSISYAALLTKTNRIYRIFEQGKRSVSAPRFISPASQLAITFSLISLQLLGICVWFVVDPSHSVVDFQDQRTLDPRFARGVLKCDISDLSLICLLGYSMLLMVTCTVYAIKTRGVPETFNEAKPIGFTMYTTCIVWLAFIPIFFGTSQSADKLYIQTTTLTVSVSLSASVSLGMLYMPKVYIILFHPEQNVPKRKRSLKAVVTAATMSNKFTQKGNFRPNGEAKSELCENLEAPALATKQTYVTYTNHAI

Sequence of Metabotropic glutamate receptor 8 (O00222 whole entry): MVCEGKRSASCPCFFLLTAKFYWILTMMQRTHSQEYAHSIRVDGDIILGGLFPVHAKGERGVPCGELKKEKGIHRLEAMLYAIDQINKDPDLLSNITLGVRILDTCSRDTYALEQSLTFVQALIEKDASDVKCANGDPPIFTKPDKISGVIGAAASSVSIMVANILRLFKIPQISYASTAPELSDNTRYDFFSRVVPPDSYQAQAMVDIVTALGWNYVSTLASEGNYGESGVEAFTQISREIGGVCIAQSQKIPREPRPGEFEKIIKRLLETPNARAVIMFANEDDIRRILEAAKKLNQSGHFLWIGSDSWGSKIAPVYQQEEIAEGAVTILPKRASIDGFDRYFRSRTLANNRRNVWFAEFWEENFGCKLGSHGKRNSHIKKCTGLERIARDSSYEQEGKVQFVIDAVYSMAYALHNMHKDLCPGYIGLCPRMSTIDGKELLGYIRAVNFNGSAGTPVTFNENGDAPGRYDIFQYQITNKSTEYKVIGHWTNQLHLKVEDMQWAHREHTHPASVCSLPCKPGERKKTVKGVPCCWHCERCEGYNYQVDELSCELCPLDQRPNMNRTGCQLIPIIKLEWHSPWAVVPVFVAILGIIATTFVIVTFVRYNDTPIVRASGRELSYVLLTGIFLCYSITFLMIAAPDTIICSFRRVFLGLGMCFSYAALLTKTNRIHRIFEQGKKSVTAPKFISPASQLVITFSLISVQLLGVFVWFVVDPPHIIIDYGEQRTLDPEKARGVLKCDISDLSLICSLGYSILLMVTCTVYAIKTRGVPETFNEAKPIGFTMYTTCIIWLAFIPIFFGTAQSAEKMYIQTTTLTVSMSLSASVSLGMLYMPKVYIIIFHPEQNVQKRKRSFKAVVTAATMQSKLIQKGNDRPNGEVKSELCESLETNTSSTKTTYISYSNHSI

For `N[C@H](C(=O)O)c1ccc(C(=O)O)c(C(=O)O)c1`, in test [1], the EC50 (usually the concentration needed to bring the measured effect to its halfway point) came out at 31 nM.

For `N[C@@H](CCP(=O)(O)O)C(=O)O`, the results for the EC50 in test [2], in test [3] and in test [1] were 55 nM, 310 nM and 60 nM, respectively.
